Consider 15 compounds from ChEMBL document CHEMBL1201862, “PubChem BioAssay data set” (2004).

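In this assay, cells in 96-well plates receive the compound at five concentrations for 48 hours. Endpoints are linearly interpolated between the surrounding concentrations. The concentration for 50% growth inhibition is given as GI50.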 Calls of active or inactive are those of the source. No stated cut-off is given here; in the data, active = GI50 up to about 1.1 µM and inactive = higher.

Holding throughout (test): NCI-60 cell line screen, 48 h
In assay [1] the test system is M14.
The test system of assay [2] is SF-295.
Assay [3] relates to HCT-15.
In assay [4] the test system is HL-60.
Assay [5] has as its system NCI-H23.
The subject of assay [6] is Malme-3M.
The subject of assay [7] is SNB-19.
Assay [8] concerns KM-20L2.
Assay [9] concerns SF-539.
Assay [10] deals with IGROV-1.
The test system of assay [11] is HCC 2998.
Assay [12] concerns LOX IMVI.
For assay [13], the system named is CAKI-1.
Assay [14] concerns SK-OV-3.
For assay [15], the system named is DU-145.
For assay [16], the system named is T47D.
In assay [17] the test system is MDA-MB-231.
Assay [18] deals with PC-3.
Assay [19] relates to Hs-578T.
Assay [20] relates to BT-549.

`CN(C)c1ccc(-c2cc(O)c3ccccc3n2)cc1`: the GI50 in assay [1] is > 100 µM (inactive); in assay [2] it was > 100 µM (inactive); in [3] it was over 100 µM; in assay [4], > 100 µM (inactive); in [5], > 100 µM (inactive); in [6], > 100 µM (inactive). Besides, the GI50 in assay [7], in assay [8], in assay [9], in assay [10], in assay [11] and in assay [12] was > 100 µM (inactive) in each case.

In the case of `COc1ccc(C2C3=C(COC3=O)Oc3cc4c(cc32)OCO4)cc1` (stereo not drawn), the GI50 in assay [13] was 7.53 µM (inactive); in assay [14], > 100 µM (inactive); in assay [1], 17.7 µM (inactive); in assay [2], 5.15 µM (inactive); in [3], 6.27 µM; in [4], 3.97 µM (inactive). Further, the GI50 in assay [5] was 20.1 µM (inactive); in assay [6], 56 µM (inactive); in assay [7] it was 61.4 µM (inactive); in [8], 11.9 µM (inactive); in assay [9], 19.4 µM (inactive); in assay [10] it was 32.2 µM (inactive). Further, the GI50 in [12] was 27.4 µM (inactive).

Turning to `Cc1cccc(NC2=NC(=O)C(CC(=O)Nc3ccccc3Cl)S2)c1` (stereo not drawn), the GI50 in assay [13] was > 100 µM (inactive); in assay [1], > 100 µM (inactive); in [2] it was > 100 µM (inactive); in [3], over 100 µM; in assay [4], > 100 µM (inactive); in [5], > 100 µM (inactive). The GI50 in assay [6], in assay [7], in assay [8], in [9], in assay [10] and in assay [11] was > 100 µM (inactive) in each case. Besides, in assay [12], the GI50 was > 100 µM (inactive).

As to `Cc1ccccc1C1=C(C(=O)Nc2ccc(Cl)c(Cl)c2)NC(=S)NC1N` (stereo not drawn), the GI50 in assay [13] was > 100 µM (inactive); in assay [14], > 100 µM (inactive); in [1], > 100 µM (inactive); in assay [3], over 100 µM; in assay [5], > 100 µM (inactive); in assay [6], > 100 µM (inactive). For the same compound, the GI50 in assay [7], in assay [8], in [9], in assay [10] and in assay [12] was > 100 µM (inactive) in each case.

Turning to `C=CCC1(CN(C)C)CC/C(=C\c2cc(OC)c(OC)c(OC)c2)C1=O` (stereo not drawn), the GI50 is 19.4 µM (inactive) in assay [13]; 19.4 µM (inactive) in assay [1]; 38.1 µM (inactive) in assay [2]; 20 µM in [3]; 6.81 µM (inactive) in assay [4]; 35 µM (inactive) in [5]. In addition, the GI50 is 33.1 µM (inactive) in [6]; 34 µM (inactive) in assay [7]; 22 µM (inactive) in assay [8]; 18.7 µM (inactive) in assay [9]; 29.4 µM (inactive) in assay [10]; 18.1 µM (inactive) in [11]. The GI50 in assay [12] was 23.2 µM (inactive).

As to `Cc1ccccc1C1=[N+]([O-])c2ccccc2C1=O`, the GI50 in assay [14] is > 100 µM (inactive); in [1], 18.4 µM (inactive); in assay [2], 23.7 µM (inactive); in [3], 14.4 µM; in [4], 10.3 µM (inactive); in [5], 20.3 µM (inactive). The GI50 in assay [6] is 18.4 µM (inactive); in assay [7], 46.1 µM (inactive); in [8] it was 17.9 µM (inactive); in [9], 19.1 µM (inactive); in assay [10] it was 18.3 µM (inactive); in assay [12], 18.7 µM (inactive).

With `C/C=C1\CN2CCc3c([nH]c4ccccc34)C2CC1CCO` (stereo not drawn), the GI50 in assay [14] is > 100 µM (inactive); in assay [1], > 100 µM (inactive); in [2], > 100 µM (inactive); in assay [3], over 100 µM; in [4], > 100 µM (inactive); in assay [5], > 100 µM (inactive). In addition, the GI50 in assay [6], in assay [7], in [8], in [9], in [10] and in assay [11] was > 100 µM (inactive) in each case. The GI50 in assay [12] was > 100 µM (inactive).

As for `Cc1ccccc1NC(=O)CC(=O)NNCC(=O)Nc1nnc(-c2ccccc2)s1`, the GI50 in assay [13] is > 100 µM (inactive); in assay [1], 57.1 µM (inactive); in assay [2] it was > 100 µM (inactive); in [3], 58.2 µM; in assay [4], 31.5 µM (inactive); in [5], > 100 µM (inactive). Besides, the GI50 in [7] is 79.1 µM (inactive); in [8], > 100 µM (inactive); in assay [9], > 100 µM (inactive); in assay [10] it was > 100 µM (inactive); in assay [11] it was > 100 µM (inactive); in assay [12], 51.3 µM (inactive).

As for `COc1ccc(N2C(=O)C3c4[nH]c5ccccc5c4C4CC(C)CC(C)C4C3C2=O)cc1` (stereo not drawn), the GI50 in [14] is > 100 µM (inactive); in [1], > 100 µM (inactive); in assay [2] it was > 100 µM (inactive); in [3], over 100 µM; in assay [4], > 100 µM (inactive); in [5], > 100 µM (inactive). For the same compound, the GI50 in assay [6], in assay [7], in assay [8], in assay [9], in [10] and in assay [11] was > 100 µM (inactive) in each case.

As to `N#CC12Cc3cc4c(cc3-c3cccc(c31)CCN2C(=O)c1ccccc1)OCO4` (stereo not drawn), the GI50 in assay [14], in assay [1], in assay [2], in [4], in assay [5] and in assay [6] was > 100 µM (inactive) each time. Moreover, the GI50 in assay [7] is 68.1 µM (inactive); in assay [8] it was > 100 µM (inactive); in assay [9], > 100 µM (inactive); in [10], > 100 µM (inactive); in assay [11] it was > 100 µM (inactive); in assay [12], > 100 µM (inactive).

`CN(C)CCN(C)C(=O)C1CCCN1C(=O)OCc1ccccc1` (stereo not drawn): the GI50 in assay [14] was > 100 µM (inactive); in [1] it was > 100 µM (inactive); in assay [2], > 100 µM (inactive); in assay [3], over 100 µM; in [4], 34.7 µM (inactive); in [5], > 100 µM (inactive). Also, the GI50 in assay [6], in assay [7], in [8], in [9], in assay [10] and in assay [11] was > 100 µM (inactive) in each case. In [12], the GI50 was > 100 µM (inactive).

As for `Cc1oc2c(C)c(O)c3c(c2c1C1(C)OCCO1)C(=O)C=C(Cl)C3=O`, the GI50 in assay [13] is > 100 µM (inactive); in [1], > 100 µM (inactive); in [2], > 100 µM (inactive); in assay [3] it was over 100 µM; in assay [4], > 100 µM (inactive); in assay [5], > 100 µM (inactive). For the same compound, the GI50 in [7], in [8], in assay [9], in [10] and in assay [12] was > 100 µM (inactive) throughout.

Regarding `CCOC(=O)/C=C(/C(=O)OCC)n1cc(C)c(=O)n(Cc2cnnn2COCCOC(C)=O)c1=O`, the GI50 was 24.5 µM (inactive) in assay [15]; 5.26 µM (inactive) in assay [13]; > 100 µM (inactive) in assay [14]; 14.7 µM (inactive) in assay [1]; 6.93 µM (inactive) in [16]; > 100 µM (inactive) in assay [2]. The GI50 in assay [17] was 16 µM (inactive); in [18], 17.2 µM (inactive); in [3], 7.45 µM; in assay [19], 19.1 µM (inactive); in assay [4], 3.48 µM (inactive); in [20], 17.5 µM (inactive). Besides, the GI50 in [5] was 15.8 µM (inactive); in [6], 2.8 µM (inactive); in assay [7], > 58.5 µM (inactive); in assay [9] it was 5.22 µM (inactive); in assay [10] it was 17 µM (inactive); in assay [11] it was 20 µM (inactive). Also, the GI50 in assay [12] was 14.8 µM (inactive).

For `COc1ccc2oc(=O)c(-c3nc4ccccc4o3)cc2c1`, the GI50 in assay [15] was > 100 µM (inactive); in [13], > 100 µM (inactive); in assay [14], > 100 µM (inactive); in assay [1], > 100 µM (inactive); in assay [16] it was 58.2 µM (inactive); in assay [2], 61.7 µM (inactive). For the same compound, the GI50 in assay [17] is 32.7 µM (inactive); in assay [18], > 100 µM (inactive); in [3], 59 µM; in assay [19], > 100 µM (inactive); in [4], 29.9 µM (inactive); in assay [20], > 100 µM (inactive). In addition, the GI50 in assay [5] is > 100 µM (inactive); in [6], > 100 µM (inactive); in assay [7], > 100 µM (inactive); in assay [9], > 100 µM (inactive); in assay [10] it was > 100 µM (inactive); in assay [11], 55 µM (inactive). Also, in assay [12], the GI50 was > 100 µM (inactive).

As to `Cc1ccc(NC(=O)C(=O)C2C(=O)N(c3ccccc3)N=C2N)cc1C` (stereo not drawn), the GI50 was > 100 µM (inactive) in assay [13]; > 100 µM (inactive) in [14]; > 100 µM (inactive) in assay [1]; > 100 µM (inactive) in assay [2]; over 100 µM in assay [3]; > 100 µM (inactive) in assay [4]. The GI50 in assay [5], in assay [6], in assay [7], in assay [8], in [9] and in assay [10] was > 100 µM (inactive) each time. In addition, the GI50 in [11] was > 100 µM (inactive).
